# Laboratory results taken from patent publication US20090275583A1, “ANTIVIRAL COMPOUNDS AND USE THEREOF” (Myriad Genetics, Incorporated, priority 2006, published 2009).
# Key:
# [1] = tested on: HIV-1 laboratory strain, NL4-3; experiment: MT-4 cytoprotection assay; assay type: cell-based; conditions: Human immunodeficiency virus 1, NL43, MT4, 96 h; MT-4 cells, four days incubation, WST-1 readout; read-out: MT4 EC50
# Method in brief: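 MT-4 cells mock- or batch-infected with NL4-3 (MOI 0.0005) for 2 h, washed, then cultured 4 days with increasing compound concentrations. Viability read by WST-1 tetrazolium reduction: cytoprotection in infected cells, toxicity in mock-infected cells.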
# HIV-1NL4-3 = experiment: P4-MAGI assay; assay type: cell-based; conditions: Human immunodeficiency virus 1, 24 h, P4 cells, 24 hour incubation, β-galactosidase expression; read-out: P4-MAGI IC50
# Method in brief: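 Cytotoxicity (TC50, 50% growth inhibition) came from WST-1 in uninfected cells. For antiviral activity, compound at rising concentrations was added immediately after HIV-1NL4-3 inoculation (MOI 1, DEAE-Dextran) of P4 cells, CD4+ HeLa cells expressing β-galactosidase from a minimal HIV-1 LTR upon infection.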
Compound,EC50 [1] [nM],IC50 (HIV-1NL4-3) [nM]
C=C(C)[C@@H]1CC[C@]2(C(=O)NCCc3cccc(C(=O)NCc4nc(C(=O)OC)co4)c3)CC[C@]3(C)C(CCC4[C@@]5(C)CC[C@H](O)C(C)(C)C5CC[C@]43C)C12 (stereo partly shown) [Example 152],14,36
C=C(C)[C@@H]1CC[C@]2(C(=O)NCCc3cccc(C(=O)NCc4nc(C(=O)O)co4)c3)CC[C@]3(C)C(CCC4[C@@]5(C)CC[C@H](O)C(C)(C)C5CC[C@]43C)C12 (stereo partly shown) [Example 153],14,44.7
C=C(C)[C@@H]1CC[C@]2(C(=O)NCCc3cccc(C(=O)NCc4cccc(C(=O)OC)n4)c3)CC[C@]3(C)C(CCC4[C@@]5(C)CC[C@H](O)C(C)(C)C5CC[C@]43C)C12 (stereo partly shown) [Example 154],8,34
C=C(C)[C@@H]1CC[C@]2(C(=O)NCCc3cccc(C(=O)NCc4ccc(C(=O)OC)o4)c3)CC[C@]3(C)C(CCC4[C@@]5(C)CC[C@H](O)C(C)(C)C5CC[C@]43C)C12 (stereo partly shown) [Example 155],17,25.6
C=C(C)[C@@H]1CC[C@]2(C(=O)NCCc3cccc(C(=O)NCc4ccc(C(=O)O)o4)c3)CC[C@]3(C)C(CCC4[C@@]5(C)CC[C@H](O)C(C)(C)C5CC[C@]43C)C12 (stereo partly shown) [Example 156],8,51
C=C(C)[C@@H]1CC[C@]2(C(=O)NCCc3cccc(C(=O)NCc4cnc(C)cn4)c3)CC[C@]3(C)C(CCC4[C@@]5(C)CC[C@H](O)C(C)(C)C5CC[C@]43C)C12 (stereo partly shown) [Example 157],111,32
C=C(C)[C@@H]1CC[C@]2(C(=O)NCCc3cccc(C(=O)N[C@@H](C)c4ccccn4)c3)CC[C@]3(C)C(CCC4[C@@]5(C)CC[C@H](O)C(C)(C)C5CC[C@]43C)C12 (stereo partly shown) [Example 158],> 10000,249
C=C(C)[C@@H]1CC[C@]2(C(=O)NCCc3cccc(C(=O)NC(C)(C)c4ccccn4)c3)CC[C@]3(C)C(CCC4[C@@]5(C)CC[C@H](O)C(C)(C)C5CC[C@]43C)C12 (stereo partly shown) [Example 159],> 10000,250
C=C(C)[C@@H]1CC[C@]2(C(=O)NCCc3cccc(C(=O)NCc4ccc(C(=O)N[C@@H](C(=O)O)[C@H](C)O)cc4)c3)CC[C@]3(C)C(CCC4[C@@]5(C)CC[C@H](O)C(C)(C)C5CC[C@]43C)C12 (stereo partly shown) [Example 160],39,15
C=C(C)[C@@H]1CC[C@]2(C(=O)NCCc3cccc(C(=O)NCc4ccc(C(=O)N[C@@H](C(=O)OC)[C@H](C)O)cc4)c3)CC[C@]3(C)C(CCC4[C@@]5(C)CC[C@H](O)C(C)(C)C5CC[C@]43C)C12 (stereo partly shown) [Example 161],15,15
C=C(C)[C@@H]1CC[C@]2(C(=O)NCCc3cccc(C(=O)NCc4ccc(C(=O)N[C@H](Cc5ccc(O)cc5)C(=O)O)cc4)c3)CC[C@]3(C)C(CCC4[C@@]5(C)CC[C@H](O)C(C)(C)C5CC[C@]43C)C12 (stereo partly shown) [Example 164],7,7
C=C(C)[C@@H]1CC[C@]2(C(=O)NCCc3cccc(C(=O)NCc4ccc(C(=O)N[C@H](Cc5ccc(O)cc5)C(=O)OC)cc4)c3)CC[C@]3(C)C(CCC4[C@@]5(C)CC[C@H](O)C(C)(C)C5CC[C@]43C)C12 (stereo partly shown) [Example 165],20,13
C=C(C)[C@@H]1CC[C@]2(C(=O)NCCc3cccc(C(=O)NCc4ccc(C(=O)N[C@H](Cc5cc6ccccc6[nH]5)C(=O)O)cc4)c3)CC[C@]3(C)C(CCC4[C@@]5(C)CC[C@H](O)C(C)(C)C5CC[C@]43C)C12 (stereo partly shown) [Example 166],13,22
C=C(C)[C@@H]1CC[C@]2(C(=O)NCCc3cccc(C(=O)NCc4ccc(C(=O)N[C@H](Cc5cc6ccccc6[nH]5)C(=O)OC)cc4)c3)CC[C@]3(C)C(CCC4[C@@]5(C)CC[C@H](O)C(C)(C)C5CC[C@]43C)C12 (stereo partly shown) [Example 167],19,22
C=C(C)[C@@H]1CC[C@]2(C(=O)NCCc3cccc(C(=O)NCc4ccc(C(=O)N[C@@H](C(=O)O)C(C)C)cc4)c3)CC[C@]3(C)C(CCC4[C@@]5(C)CC[C@H](O)C(C)(C)C5CC[C@]43C)C12 (stereo partly shown) [Example 168],6,14
C=C(C)[C@@H]1CC[C@]2(C(=O)NCCc3cccc(C(=O)NCc4ccc(C(=O)N[C@@H](C(=O)OC)C(C)C)cc4)c3)CC[C@]3(C)C(CCC4[C@@]5(C)CC[C@H](O)C(C)(C)C5CC[C@]43C)C12 (stereo partly shown) [Example 169],9,20

Compound,EC50 [1] [nM],IC50 (HIV-1NL4-3) [nM]
C=C(C)[C@@H]1CC[C@]2(C(=O)NCCc3cccc(C(=O)NCc4ccc(C(=O)N[C@H](Cc5c[nH]cn5)C(=O)OC)cc4)c3)CC[C@]3(C)C(CCC4[C@@]5(C)CC[C@H](O)C(C)(C)C5CC[C@]43C)C12 (stereo partly shown) [Example 170],5,10
C=C(C)[C@@H]1CC[C@]2(C(=O)NCCc3cccc(C(=O)NCc4ccc(C(=O)NCCC5CCCN5C)cc4)c3)CC[C@]3(C)C(CCC4[C@@]5(C)CC[C@H](O)C(C)(C)C5CC[C@]43C)C12 (stereo partly shown) [Example 171],11,50
C=C(C)[C@@H]1CC[C@]2(C(=O)NCCc3cccc(C(=O)NCc4ccc(C(=O)NCCN5CCCCC5)cc4)c3)CC[C@]3(C)C(CCC4[C@@]5(C)CC[C@H](O)C(C)(C)C5CC[C@]43C)C12 (stereo partly shown) [Example 172],14,93
C=C(C)[C@@H]1CC[C@]2(C(=O)NCCc3cccc(C(=O)NCc4ccc(C(=O)NCCN5CCC(O)CC5)cc4)c3)CC[C@]3(C)C(CCC4[C@@]5(C)CC[C@H](O)C(C)(C)C5CC[C@]43C)C12 (stereo partly shown) [Example 173],2,28
C=C(C)[C@@H]1CC[C@]2(C(=O)NCCc3cccc(C(=O)NCc4ccc(C(=O)NCCN5CCOCC5)cn4)c3)CC[C@]3(C)C(CCC4[C@@]5(C)CC[C@H](O)C(C)(C)C5CC[C@]43C)C12 (stereo partly shown) [Example 174],7,6
C=C(C)[C@@H]1CC[C@]2(C(=O)NCCc3cccc(C(=O)NCc4ccc(C(=O)N[C@H](CO)C(=O)OC)cc4)c3)CC[C@]3(C)C(CCC4[C@@]5(C)CC[C@H](O)C(C)(C)C5CC[C@]43C)C12 (stereo partly shown) [Example 175],4,13
C=C(C)[C@@H]1CC[C@]2(C(=O)NCCc3cccc(C(=O)NCc4ccc(C(=O)N[C@@H](C(=O)O)[C@@H](C)N5CCOCC5)cc4)c3)CC[C@]3(C)C(CCC4[C@@]5(C)CC[C@H](O)C(C)(C)C5CC[C@]43C)C12 (stereo partly shown) [Example 176],57,72
C=C(C)[C@@H]1CC[C@]2(C(=O)NCCc3cccc(C(=O)NCc4ccc(C(=O)N[C@@H](C(=O)O)[C@H](C)N5CCN(C)CC5)cc4)c3)CC[C@]3(C)C(CCC4[C@@]5(C)CC[C@H](O)C(C)(C)C5CC[C@]43C)C12 (stereo partly shown) [Example 177],92,8
C=C(C)[C@@H]1CC[C@]2(C(=O)NCCc3cccc(C(=O)NCc4ccc(C(=O)N5CC(O)C[C@@H]5C(=O)O)cc4)c3)CC[C@]3(C)C(CCC4[C@@]5(C)CC[C@H](O)C(C)(C)C5CC[C@]43C)C12 (stereo partly shown) [Example 178],35,21
C=C(C)[C@@H]1CC[C@]2(C(=O)NCCc3cccc(C(=O)NCc4ccc(N(C)C)cc4)c3)CC[C@]3(C)C(CCC4[C@@]5(C)CC[C@H](O)C(C)(C)C5CC[C@]43C)C12 (stereo partly shown) [Example 179],98,72
C=C(C)[C@@H]1CC[C@]2(C(=O)NCCc3cccc(C(=O)NCc4ccc(N)cc4)c3)CC[C@]3(C)C(CCC4[C@@]5(C)CC[C@H](O)C(C)(C)C5CC[C@]43C)C12 (stereo partly shown) [Example 181],28,19
C=C(C)[C@@H]1CC[C@]2(C(=O)NCCc3cccc(C(=O)NCc4ccc(C(=O)N5CCN(C(=O)OC(C)(C)C)C(C(=O)OC)C5)cc4)c3)CC[C@]3(C)C(CCC4[C@@]5(C)CC[C@H](O)C(C)(C)C5CC[C@]43C)C12 (stereo partly shown) [Example 183],108,44
C=C(C)[C@@H]1CC[C@]2(C(=O)NCCc3cccc(C(=O)NCc4ccc(C(=O)NC(Cc5c[nH]cn5)C(=O)O)cc4)c3)CC[C@]3(C)C(CCC4[C@@]5(C)CC[C@H](O)C(C)(C)C5CC[C@]43C)C12 (stereo partly shown) [Example 184],830,104
C=C(C)[C@@H]1CC[C@]2(C(=O)NCCc3cccc(C(=O)NCc4ccc(C(=O)NC(CO)C(=O)O)cc4)c3)CC[C@]3(C)C(CCC4[C@@]5(C)CC[C@H](O)C(C)(C)C5CC[C@]43C)C12 (stereo partly shown) [Example 185],36,14
C=C(C)[C@@H]1CC[C@]2(C(=O)NCc3cc(C(=O)NCc4cccc(C(=O)O)c4F)ccc3F)CC[C@]3(C)C(CCC4[C@@]5(C)CC[C@H](O)C(C)(C)C5CC[C@]43C)C12 (stereo partly shown) [Example 186],830,120
C=C(C)[C@@H]1CC[C@]2(C(=O)NCCc3cccc(C(=O)NCc4ccc(C(=O)NCc5ncccc5C(=O)OC)cc4)c3)CC[C@]3(C)C(CCC4[C@@]5(C)CC[C@H](O)C(C)(C)C5CC[C@]43C)C12 (stereo partly shown) [Example 187],40,8
